Assay results taken from patent US20210046106A1, “METHODS OF TREATING CANCER WITH ANDROGEN DEPRIVATION THERAPY IN COMBINATION WITH AN INHIBITOR OF THE SP1 TRANSCRIPTION FACTOR” (The Board of Trustees of the Leland Stanford Junior …, priority 2019, published 2021).

Columns and labels:
[1] = Phase 1 trial: Brief Pain Inventory; format: in vivo, human; details: 10 point scale
Protocol: They also completed another pain inventory.
The pain inventory captured four categories of pain as follows: worst pain in last 24 hours, least pain in last 24 ours, average pain and pain right now. Pain was scored using a 10 point scale, on which 0 was no pain and 10 was severe pain. […] A change of at least one point was felt to be clinically meaningful.

[2] = tested on: tumor in irradiated field; assay: Phase 1 trial: tumor response in irradiated field (imaging); format: in vivo, human; set-up: key: CR resolution of uptake; PR decrease in extent of involvement (# and size of lesion ≥ 50% observed); SD same extent of involvement (# and size of lesions)
Source text: All but one patient received palliative radiation therapy to symptomatic bone metastases. Quantitation of response in bone is difficult and imprecise. Furthermore, patients were imaged as per standard of care, using a variety of imaging modalities, including bone scan, which is not applicable to RECIST scoring. […] There was no apparent dose response relationship.

GI epithelium = assay: Preclinical: radiosensitization of normal GI epithelium; details: preclinical studies
[3] = 5.5 mg cohort (N=3), First follow-up
[4] = 11 mg cohort (N=3), First follow-up
[5] = 16.5 mg cohort (N=3), End of RT
[6] = 16.5 mg cohort (N=3), First follow-up
[7] = 33 mg cohort (N=5), First follow-up
[8] = 49.5 mg cohort (N=1), End of RT
[9] = 49.5 mg cohort (N=1), First follow-up

SMILES: O=[Se](O)O [sodium selenite, Sodium selenite pentahydrate]
- Average Pain, average change from baseline, Mean ± SD ([1]; 5.5 mg cohort (N=3), End of RT): −2.5 ± 0.7
- Least Pain Last 24 Hrs, average change from baseline, Mean ± SD ([1]; 5.5 mg cohort (N=3), End of RT): −1.5 ± 2.1
- Pain Right Now, average change from baseline, Mean ± SD ([1]; 5.5 mg cohort (N=3), End of RT): −2 ± 0
- Worst Pain Last 24 Hrs, average change from baseline, Mean ± SD ([1]; 5.5 mg cohort (N=3), End of RT): −4 ± 1.4
- Average Pain, average change from baseline, Mean ± SD [1, 3]: −1.5 ± 0.7
- Least Pain Last 24 Hrs, average change from baseline, Mean ± SD [1, 3]: −1.5 ± 1.4
- Pain Right Now, average change from baseline, Mean ± SD [1, 3]: −2 ± 0
- Worst Pain Last 24 Hrs, average change from baseline, Mean ± SD [1, 3]: −2.5 ± 0.7
- Average Pain, average change from baseline, Mean ± SD ([1]; 11 mg cohort (N=3), End of RT): −2.3 ± 4.0
- Least Pain Last 24 Hrs, average change from baseline, Mean ± SD ([1]; 11 mg cohort (N=3), End of RT): −2.7 ± 3.8
- Pain Right Now, average change from baseline, Mean ± SD ([1]; 11 mg cohort (N=3), End of RT): 1.7 ± 2.9
- Worst Pain Last 24 Hrs, average change from baseline, Mean ± SD ([1]; 11 mg cohort (N=3), End of RT): −1.7 ± 1.5
- Average Pain, average change from baseline, Mean ± SD [1, 4]: −0.7 ± 4.6
- Least Pain Last 24 Hrs, average change from baseline, Mean ± SD [1, 4]: −1.3 ± 4.9
- Pain Right Now, average change from baseline, Mean ± SD [1, 4]: 1.7 ± 1.2
- Worst Pain Last 24 Hrs, average change from baseline, Mean ± SD [1, 4]: −0.7 ± 5.0
- Average Pain, average change from baseline, Mean ± SD [1, 5]: −1.5 ± 3.5
- Least Pain Last 24 Hrs, average change from baseline, Mean ± SD [1, 5]: −1 ± 2.8
- Pain Right Now, average change from baseline, Mean ± SD [1, 5]: −0.5 ± 2.1
- Worst Pain Last 24 Hrs, average change from baseline, Mean ± SD [1, 5]: −1 ± 1.4
- Average Pain, average change from baseline, Mean ± SD [1, 6]: −2 ± 2
- Least Pain Last 24 Hrs, average change from baseline, Mean ± SD [1, 6]: −2.3 ± 2.1
- Pain Right Now, average change from baseline, Mean ± SD [1, 6]: −2.7 ± 3.8
- Worst Pain Last 24 Hrs, average change from baseline, Mean ± SD [1, 6]: −0.7 ± 0.6
- Average Pain, average change from baseline, Mean ± SD ([1]; 33 mg cohort (N=5), End of RT): −1.2 ± 1.3
- Least Pain Last 24 Hrs, average change from baseline, Mean ± SD ([1]; 33 mg cohort (N=5), End of RT): −0.2 ± 0.5
- Pain Right Now, average change from baseline, Mean ± SD ([1]; 33 mg cohort (N=5), End of RT): −0.6 ± 1.1
- Worst Pain Last 24 Hrs, average change from baseline, Mean ± SD ([1]; 33 mg cohort (N=5), End of RT): −1 ± 2
- Average Pain, average change from baseline, Mean ± SD [1, 7]: −1 ± 1
- Least Pain Last 24 Hrs, average change from baseline, Mean ± SD [1, 7]: 0 ± 1
- Pain Right Now, average change from baseline, Mean ± SD [1, 7]: −0.8 ± 1.3
- Worst Pain Last 24 Hrs, average change from baseline, Mean ± SD [1, 7]: −2 ± 2
- Average Pain, average change from baseline, Mean ± SD [1, 8]: −4.5 ± 0
- Least Pain Last 24 Hrs, average change from baseline, Mean ± SD [1, 8]: −5 ± 0
- Pain Right Now, average change from baseline, Mean ± SD [1, 8]: −4 ± 0
- Worst Pain Last 24 Hrs, average change from baseline, Mean ± SD [1, 8]: −6 ± 0
- Average Pain, average change from baseline, Mean ± SD [1, 9]: −8.5 ± 0
- Least Pain Last 24 Hrs, average change from baseline, Mean ± SD [1, 9]: −9 ± 0
- Pain Right Now, average change from baseline, Mean ± SD [1, 9]: −8 ± 0
- Worst Pain Last 24 Hrs, average change from baseline, Mean ± SD [1, 9]: −10 ± 0
- Tumor Response in Irradiated Field ([2]; patient 2 (prostate, 5.5 mg), Field 1, bone, BS 2 mo.): CR
- Tumor Response in Irradiated Field ([2]; patient 2 (prostate, 5.5 mg), Field 2, bone, BS 2 mo.): PR (PR decrease in extent of involvement (# and size of lesion ≥ 50% observed))
- Tumor Response in Irradiated Field ([2]; patient 3 (prostate, 5.5 mg), bone, BS 1 mo.): SD
- Tumor Response in Irradiated Field ([2]; patient 4 (prostate, 11 mg), bone, BS 1 mo.): CR
- Tumor Response in Irradiated Field ([2]; patient 5 (prostate, 11 mg), bone, BS 3 mo., ↓ intensity of uptake): SD ( ↓ Intensity of uptake)
- Tumor Response in Irradiated Field ([2]; patient 6 (prostate, 11 mg), bone, BS 5 mo., change from diffuse to patch involvement): PR (Change from diffuse to patch involvement (PR decrease in extent of involvement (# and size of lesion ≥ 50% observed))
- Tumor Response in Irradiated Field ([2]; patient 7 (prostate, 16.5 mg), bone, BS 1 mo., ↓ intensity of uptake): SD (↓ intensity of uptake)
- Tumor Response in Irradiated Field ([2]; patient 8 (prostate, 16.5 mg), bone, MRI 2 mo.): SD
- Tumor Response in Irradiated Field ([2]; patient 9 (prostate, 16.5 mg), bone, CT and MRI 3 mo.): SD
- Tumor Response in Irradiated Field ([2]; patient 10 (prostate, 33 mg), Field 1, bone, CT 4 mo.): PD (PD ≥ 20% ↑ sum of diameters)
- Tumor Response in Irradiated Field ([2]; patient 10 (prostate, 33 mg), Field 2, bone, CT 4 mo.): SD
- Tumor Response in Irradiated Field ([2]; patient 11 (multiple myeloma, 33 mg), bone, PET-CT 6 mo., almost complete metabolic resolution): PR (almost complete metabolic resolution) (PR ≥ 30% ↓ sum of diameters)
- Tumor Response in Irradiated Field ([2]; patient 12 (MPNST, 33 mg), lymph node, CT 1 mo.): SD
- Tumor Response in Irradiated Field ([2]; patient 13 (NSCLC, 33 mg), bone, CT, MRI and PET-CT 1 mo.): PD (PD ≥ 20% ↑ sum of diameters)
- Tumor Response in Irradiated Field ([2]; patient 15 (NSCLC, 49.5 mg), bone, BS 2 mo.): SD
- sensitization of GI epithelium to radiation (GI epithelium): did not sensitize GI epithelium to radiation
